# From patent US20220119354A1, “DIAMINO-SUBSTITUTED PYRIDINES AND PYRIMIDINES AS HERBICIDES” (FMC Corporation, priority 2019, published 2022)
# Assays:
# Assay type in all cases: in vivo
# [1] = system: ryegrass, Italian (Lolium multiflorum); experiment: Test A preemergence, Italian ryegrass; settings: 0 to 100 scale
# Procedure, shortened: (§1)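 0–100 visual control rating, ~10 d post-treatment, greenhouse. Pre = directed soil spray on seeded loam/sand; post = spray at 1–2 leaf stage. Surfactant-containing solvent formulation.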
# [2] = system: ragweed (common ragweed, Ambrosia elatior); experiment: Test A postemergence, ragweed; settings: Ambrosia artemisiifolia, post-emergence, 240 h, 0 to 100 scale, read-out: Plant response rating, Ragweed
# Procedure, shortened: as §1
# [3] = system: rice (Oryza sativa); experiment: Test B flooded paddy test, rice; settings: Oryza sativa, 360 h; Flood, 250 g ai/ha, applied to paddy water, 2-leaf stage, visual evaluation after 13 to 15 d; read-out: Plant response rating, Rice (0 to 100 scale, 0 is no effect, 100 is complete control)
# Procedure, shortened: (§2)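 Plants grown to 2-leaf stage. Compounds applied directly into paddy water flooded 3 cm above soil, with that depth kept throughout. After 13–15 d in greenhouse, visual rating versus controls on a 0–100 scale (0 no effect, 100 complete control).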
# [4] = system: ragweed (common ragweed, Ambrosia elatior); experiment: Test A preemergence, ragweed; settings: 0 to 100 scale
# Procedure, shortened: as §1
# [5] = system: kochia (Kochia scoparia); experiment: Test A postemergence, kochia; settings: Bassia scoparia, post-emergence, 240 h, 0 to 100 scale, read-out: Plant response rating, Kochia
# Procedure, shortened: as §1
# [6] = system: barnyardgrass (Echinochloa crus-galli); experiment: Test B flooded paddy test, barnyardgrass; settings: Echinochloa crus-galli, 360 h; Flood, 250 g ai/ha, applied to paddy water, 2-leaf stage, visual evaluation after 13 to 15 d; read-out: Plant response rating, Barnyardgrass (0 to 100 scale, 0 is no effect, 100 is complete control)
# Procedure, shortened: as §2
# [7] = system: pigweed (Amaranthus retroflexus); experiment: Test A preemergence, pigweed; settings: 0 to 100 scale
# Procedure, shortened: as §1
# [8] = system: foxtail, giant (Setaria faberii); experiment: Test A preemergence, giant foxtail; settings: 0 to 100 scale
# Procedure, shortened: as §1
# [9] = system: ryegrass, Italian (Lolium multiflorum); experiment: Test A postemergence, Italian ryegrass; settings: Lolium multiflorum, post-emergence, 240 h, 0 to 100 scale, read-out: Plant response rating, Ryegrass, Italian
# Procedure, shortened: as §1
# [10] = system: galium (catchweed bedstraw, Galium aparine); experiment: Test A postemergence, galium; settings: Galium, post-emergence, 240 h, 0 to 100 scale, read-out: Plant response rating, Galium
# Procedure, shortened: as §1
# [11] = system: blackgrass (Alopecurus myosuroides); experiment: Test A postemergence, blackgrass; settings: Alopecurus myosuroides, post-emergence, 240 h, 0 to 100 scale, read-out: Plant response rating, Blackgrass
# Procedure, shortened: as §1
# [12] = system: corn (Zea mays); experiment: Test A postemergence, corn; settings: Zea mays, post-emergence, 240 h, 0 to 100 scale
# Procedure, shortened: as §1
# [13] = system: kochia (Kochia scoparia); experiment: Test A preemergence, kochia; settings: 0 to 100 scale
# Procedure, shortened: as §1
# [14] = system: barnyardgrass (Echinochloa crus-galli); experiment: Test A postemergence, barnyardgrass; settings: Echinochloa crus-galli, post-emergence, 240 h, 0 to 100 scale, read-out: Plant response rating, Barnyardgrass
# Procedure, shortened: as §1
# [15] = system: barnyardgrass (Echinochloa crus-galli); experiment: Test A preemergence, barnyardgrass; settings: 0 to 100 scale
# Procedure, shortened: as §1
# [16] = system: wheat (Triticum aestivum); experiment: Test A postemergence, wheat; settings: Triticum aestivum, post-emergence, 240 h, 0 to 100 scale, read-out: Plant response rating, Wheat
# Procedure, shortened: as §1
# [17] = system: pigweed (Amaranthus retroflexus); experiment: Test A postemergence, pigweed; settings: Amaranthus retroflexus, post-emergence, 240 h, 0 to 100 scale, read-out: Plant response rating, Pigweed
# Procedure, shortened: as §1
# [18] = system: sedge, umbrella (small-flower umbrella sedge, Cyperus difformis); experiment: Test B flooded paddy test, umbrella sedge; settings: Cyperus difformis, 360 h; Flood, 250 g ai/ha, applied to paddy water, 2-leaf stage, visual evaluation after 13 to 15 d; read-out: Plant response rating, Sedge, Umbrella (0 to 100 scale, 0 is no effect, 100 is complete control)
# Procedure, shortened: as §2
# [19] = system: foxtail, giant (Setaria faberii); experiment: Test A postemergence, giant foxtail; settings: Setaria faberi, post-emergence, 240 h, 0 to 100 scale, read-out: Plant response rating, Foxtail, Giant
# Procedure, shortened: as §1
# [20] = system: ducksalad (Heteranthera limosa); experiment: Test B flooded paddy test, ducksalad; settings: Heteranthera limosa, 360 h; Flood, 250 g ai/ha, applied to paddy water, 2-leaf stage, visual evaluation after 13 to 15 d; read-out: Plant response rating, Ducksalad (0 to 100 scale, 0 is no effect, 100 is complete control)
# Procedure, shortened: as §2
smiles,measurement,setting,value
"C[C@@H](Nc1ncc(C(F)(F)F)c(N)n1)c1cc2ccccc2s1 [Compound 4, N2-[(1R)-1-benzo[b]thien-2-ylethyl]-5-(trifluoromethyl)-2,4-pyrimidinediamine]","Plant response rating, Ryegrass, Italian",[1]; 125 g ai/ha,80
same,"Plant response rating, Ryegrass, Italian",[1]; 500 g ai/ha,90
same,pest or weed control at 125 g/ha,[2]; 125 g ai/ha,80%
same,pest or weed control at 500 g/ha,[2]; 500 g ai/ha,100%
same,plant injury at 250 g/ha,[3],0%
same,"Plant response rating, Ragweed",[4]; 125 g ai/ha,100
same,"Plant response rating, Ragweed",[4]; 500 g ai/ha,100
same,pest or weed control at 125 g/ha,[5]; 125 g ai/ha,90%
same,pest or weed control at 500 g/ha,[5]; 500 g ai/ha,100%
same,pest or weed control at 250 g/ha,[6],95%
same,"Plant response rating, Pigweed",[7]; 125 g ai/ha,100
same,"Plant response rating, Pigweed",[7]; 500 g ai/ha,100
same,"Plant response rating, Foxtail, Giant",[8]; 125 g ai/ha,90
same,"Plant response rating, Foxtail, Giant",[8]; 500 g ai/ha,100
same,pest or weed control at 125 g/ha,[9]; 125 g ai/ha,0%
same,pest or weed control at 500 g/ha,[9]; 500 g ai/ha,20%
same,pest or weed control at 125 g/ha,[10]; 125 g ai/ha,80%
same,pest or weed control at 500 g/ha,[10]; 500 g ai/ha,80%
same,pest or weed control at 125 g/ha,[11]; 125 g ai/ha,0%
same,pest or weed control at 500 g/ha,[11]; 500 g ai/ha,60%
same,"Corn plant response rating (crop injury, 0 = no effect, 100 = complete kill) at 125 g/ha",[12]; 125 g ai/ha,0%
same,"Corn plant response rating (crop injury, 0 = no effect, 100 = complete kill) at 500 g/ha",[12]; 500 g ai/ha,30%
same,"Plant response rating, Kochia",[13]; 125 g ai/ha,100
same,"Plant response rating, Kochia",[13]; 500 g ai/ha,100
same,pest or weed control at 125 g/ha,[14]; 125 g ai/ha,20%
same,pest or weed control at 500 g/ha,[14]; 500 g ai/ha,60%
same,"Plant response rating, Barnyardgrass",[15]; 125 g ai/ha,90
same,"Plant response rating, Barnyardgrass",[15]; 500 g ai/ha,100
same,plant injury at 125 g/ha,[16]; 125 g ai/ha,0%
same,plant injury at 500 g/ha,[16]; 500 g ai/ha,0%
same,pest or weed control at 125 g/ha,[17]; 125 g ai/ha,100%
same,pest or weed control at 500 g/ha,[17]; 500 g ai/ha,100%
same,pest or weed control at 250 g/ha,[18],100%
same,pest or weed control at 125 g/ha,[19]; 125 g ai/ha,30%
same,pest or weed control at 500 g/ha,[19]; 500 g ai/ha,70%
same,pest or weed control at 250 g/ha,[20],45%
